Columns and labels:
Sprague-Dawley rats [1] = experiment: animal or person; format: in vivo; conditions: rats; for ED50: Rattus norvegicus, LORR, up and down method, tail vein, class symbols, read-out: ED50
Source text: Evaluating indicator: The end point of anesthesia: the disappearance of forepaw righting reflex (lorr) was used as the end point of anesthesia; General anesthesia effect: the disappearance of forepaw righting reflex in rats lasting for 30 seconds is taken as the index of general anesthesia effect; Anesthesia recovery index: the recovery of rat forepaw righting reflex was used as the index of anesthesia recovery.

Sprague-Dawley rats [2] = format: in vivo; conditions: tail vein
Sprague-Dawley rats [3] = experiment: Pharmacological effect and adverse reactions under the equivalent dose (2ED50), Group D compounds; format: in vivo; conditions: for Righting reflex duration / Sedation duration / Onset time: 2ED50, tail vein, rats, n=8; for Adverse reaction: Convulsions / Adverse reaction: Cough, broken-winded / Adverse reaction: Euphoria / Adverse reaction: Four limbs rigidity / Adverse reaction: Red urine / Adverse reaction: Slower breathing, Tetany convulsion / Adverse reaction: Systemic stiffness, Convulsions, Opisthotonus / Adverse reaction: Tongue stretching / Adverse reaction: Tremor: equivalent dose (2 × ED50), number of rats of n = 8
Source text: Evaluation index: onset time: from the completion of drug injection to the disappearance of forepaw righting reflex in rats; Duration of anesthesia: the time from the disappearance of rat forepaw righting reflex to the recovery of rat forepaw righting reflex; Recovery time of anesthesia: the time from the […] to complete recovery;

SD rats = conditions: for After the infusion is stopped: Righting reflex recovery time / Recovery time after stopping infusion: after 1 hour continuous infusion at 2 times the MIR; for After the infusion is stopped: Righting reflex recovery time / Recovery time after stopping infusion / Sedation onset time: SD rats; for Sedation onset time: continuous tail vein infusion at 2 times the MIR
Procedure: Experimental Methods: Adult male SD rats with body weight ranging from 250 g to 350 g were selected for continuous infusion test.
Evaluation indexes: the time from the beginning of continuous infusion to the […] of sedation in rats; the time from the cessation of infusion to the restoration of the forepaw turning reflex after 1 hour of continuous infusion; the time from the cessation of infusion to the complete restoration of rats after 1 hour of continuous infusion.

[4] = continuous infusion 2 x MIR 1 hour, rats affected/rats

| SMILES | ED50 (Sprague-Dawley rats [1]) | Approximate therapeutic index (Sprague-Dawley rats [1]) | Minimal lethal dose (Sprague-Dawley rats [2]) | Righting reflex duration (Sprague-Dawley rats [3]) | Sedation duration (Sprague-Dawley rats [3]) | Onset time (Sprague-Dawley rats [3]; unit min) | Adverse reaction: Convulsions (Sprague-Dawley rats [3]) | Adverse reaction: Cough, broken-winded (Sprague-Dawley rats [3]) | Adverse reaction: Euphoria (Sprague-Dawley rats [3]) | Adverse reaction: Four limbs rigidity (Sprague-Dawley rats [3]) | Adverse reaction: Red urine (Sprague-Dawley rats [3]) | Adverse reaction: Slower breathing, Tetany convulsion (Sprague-Dawley rats [3]) | Adverse reaction: Systemic stiffness, Convulsions, Opisthotonus (Sprague-Dawley rats [3]) | Adverse reaction: Tongue stretching (Sprague-Dawley rats [3]) | Adverse reaction: Tremor (Sprague-Dawley rats [3]) | After the infusion is stopped: Righting reflex recovery time (SD rats) | Recovery time after stopping infusion (SD rats) | Types and incidence of adverse reactions: Red urine (SD rats; [4]) | Types and incidence of adverse reactions: Tremor (SD rats; [4]) | Sedation onset time (SD rats) | other results |
| --- | --- | --- | --- | --- | --- | --- | --- | --- | --- | --- | --- | --- | --- | --- | --- | --- | --- | --- | --- | --- | --- |
| COC(OC)(OC)C(=O)c1ccnn1[C@H](C)c1ccccc1 [Compound D1] | 0.5 to 1 mg/kg | >8.4 | >11.2 mg/kg | 1.18 ± 0.43 min | 7.96 ± 2.14 min | <1 min | 0 | 0 | 0 | 0 | 8 | 0 | 0 | 1 | 0 | 18 to 24 min | 35 to 45 min | 6/6 | 2/6 | <5 min | Types and incidence of adverse reactions: Tongue stretching (SD rats; [4]): Tongue stretching(2/6) |
| COC(OC)(OC)C(=O)c1c(F)ncn1[C@H](C)c1ccccc1 [Compound D93] | 0.04 to 0.5 mg/kg | >25.1 | >1.8 mg/kg | 2.50 ± 0.30 min | 6.89 ± 0.80 min | – | 0 | 0 | 0 | 0 | 8 | 0 | 8 | 1 | 0 | – | – | – | – | – | Onset time (Sprague-Dawley rats [3]; unit s): <0.5 min |
| COC(OC)C(=O)c1cc(F)nn1[C@H](C)c1ccccc1 [Compound D25] | 0.5 to 1 mg/kg | >10.2 | >8.4 mg/kg | 1.52 ± 0.26 min | 6.82 ± 0.27 min | <1 min | 0 | 0 | 0 | 1 | 8 | 0 | 0 | 0 | 2 | 16 to 24 min | 30 to 40 min | 6/6 | 2/6 | <5 min | Types and incidence of adverse reactions: Hindlimb rigidity (SD rats; [4]): Hindlimb rigidity(1/6) |
| CCOC(OCC)C(=O)c1c(F)ncn1[C@H](C)c1ccccc1 [Compound D101] | 0.04 to 0.5 mg/kg | >10.5 | >9.3 mg/kg | 1.80 ± 0.58 min | 7.20 ± 3.21 min | – | 0 | 0 | 0 | 0 | 8 | 0 | 2 | 0 | 0 | – | – | – | – | – | Onset time (Sprague-Dawley rats [3]; unit s): <0.5 min |
